Patent US6063782A, “Pyrrolopyridazine derivatives” (Sankyo Company, Limited, priority 1994, dated 2000)

Experiments:
[1] = test system: Helicobacter pylori strains 9470, 9472 and 9474; assay: Antibacterial activity against Helicobacter pylori; assay type: cell-based; conditions: strains 9470, 9472 and 9474, 37° C., 3 days, slightly aerobic; result given in words only
Description: Antibacterial activity against Helicobacter pylori The antibacterial activity of the compounds of the present invention were evaluated by measuring the minimum inhibitory concentration values (MIC) of the present compounds against Helicobacter pylori strains 9470, 9472 and 9474. These strains of Helicobacter pylori were incubated for 4 days on a plate medium. The medium was prepared by dissolving brain heart infusion agar (Product of DIFCO) in a defined amount of distilled water, by sterilization in an autoclave, injecting horse blood (Product of Nihon Seibutsu Zairyo Co.) into each plate for the medium to contain 7% of the blood and by solidifying. Under slightly aerobic conditions, Helicobacter pylori cultivated at 37° C. for 4 days was suspended in a physiological saline solution for its inocular size to be about 10^8 CFU/ml. The suspension was diluted 100 times, and about 10 μl of the diluted suspension was inoculated on a medium for MIC determination. The medium for MIC determination used had the same compounds as those for preculture. […] In a similar way to the preculture, Helicobacter pylori was cultivated at 37° C. for 3 days under slightly aerobic conditions. […] The minimum concentration which gave no bacterial growth was regarded as MIC of the compound of the present invention.

gastric acid secretion = assay: Gastric acid secretion activity test using pyloric ligation in rats (Shay rat method); assay type: in vivo; conditions: male SD rats, 20 mg/kg injected into the duodenal region, 4 hours, result given in words only
Description: Gastric acid secretion activity test using pyloric ligation in rats (Shay rat method)
Pyloric ligation was conducted based on the method of Shay et al. [Gastroenterology, 5, 43 (1945)]. Male rats of SD strain were fasted for 24 hours; their abdomens were sectioned during anesthesia under ether. The duodenal and pyloric regions were exposed and the latter was ligated. A solution of a test compound (10 mg/ml) prepared by use of 1.5w parts of dimethylacetamide, 68.5% parts of polyethyleneglycol (PEG-400) and 30% parts of physiological saline solution, was injected into the duodenal region for the dose to be 20 mg/kg by use of a 1-ml syringe and an injection needle (26G). After injection of the test compound, the abdominal region was sutured. The animals were allowed to a stand for 4 hours without feeding food and water and then sacrified with carbon dioxide gas. The stomach was excised and gastric juice was gathered. The gastric juice sample was centrifuged (4° C., 2500 rpm, 15 minutes). The amount of the supernatant was measured to be as the gastric secretion. The acidity of the gastric juice was determined by the amount (ml) of 0.01 N sodium hydroxide solution required for titration of 0.1 ml of the supernatant to pH 7.0 by use of-an auto-titrating apparatus. The value of gastric acid secretion was calculated from the value of gastric secretion and the acidity of gastric juice. The inhibiting rate was obtained from the values of gastric acid secretion of the control group and of the administered group.

[2] = target: proton.potassium-adenosine triphosphatase (H+.K+-ATPase) (Sus scrofa, UniProt P19156); assay: Proton.potassium-adenosine triphosphatase (H+.K+-ATPase) inhibition test; assay type: biochemical; conditions: microsomal fraction of porcine gastric mucosa, pH=6.85, 37° C.; result given in words only
Chain of proton.potassium-adenosine triphosphatase (H+.K+-ATPase) (P19156 whole entry): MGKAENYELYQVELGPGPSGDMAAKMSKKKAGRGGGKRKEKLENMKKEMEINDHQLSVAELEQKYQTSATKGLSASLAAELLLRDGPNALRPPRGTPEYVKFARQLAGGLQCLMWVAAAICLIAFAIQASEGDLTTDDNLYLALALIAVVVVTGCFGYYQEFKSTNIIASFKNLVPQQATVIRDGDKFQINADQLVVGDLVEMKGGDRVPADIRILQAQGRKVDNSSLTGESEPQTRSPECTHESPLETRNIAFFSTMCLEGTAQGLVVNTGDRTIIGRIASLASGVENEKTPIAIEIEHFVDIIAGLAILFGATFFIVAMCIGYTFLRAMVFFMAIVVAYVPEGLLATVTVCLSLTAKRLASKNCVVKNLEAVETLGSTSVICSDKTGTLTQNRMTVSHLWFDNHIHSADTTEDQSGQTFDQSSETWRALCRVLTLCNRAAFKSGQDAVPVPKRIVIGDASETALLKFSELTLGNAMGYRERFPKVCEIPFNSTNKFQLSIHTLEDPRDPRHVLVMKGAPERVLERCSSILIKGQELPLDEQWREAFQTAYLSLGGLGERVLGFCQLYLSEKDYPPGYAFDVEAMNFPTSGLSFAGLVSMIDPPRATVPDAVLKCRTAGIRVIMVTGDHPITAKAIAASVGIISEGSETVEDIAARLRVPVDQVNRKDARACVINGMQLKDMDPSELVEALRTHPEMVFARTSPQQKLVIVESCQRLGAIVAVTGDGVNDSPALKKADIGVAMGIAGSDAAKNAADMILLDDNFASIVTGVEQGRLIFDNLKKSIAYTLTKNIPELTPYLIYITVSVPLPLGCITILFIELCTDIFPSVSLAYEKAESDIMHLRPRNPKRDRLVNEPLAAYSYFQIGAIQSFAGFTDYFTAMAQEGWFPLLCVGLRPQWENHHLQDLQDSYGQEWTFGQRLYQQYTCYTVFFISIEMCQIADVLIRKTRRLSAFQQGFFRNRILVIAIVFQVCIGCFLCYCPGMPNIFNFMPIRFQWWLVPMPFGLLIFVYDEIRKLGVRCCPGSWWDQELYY
Chain of proton.potassium-adenosine triphosphatase (H+.K+-ATPase) (P18434 whole entry partner): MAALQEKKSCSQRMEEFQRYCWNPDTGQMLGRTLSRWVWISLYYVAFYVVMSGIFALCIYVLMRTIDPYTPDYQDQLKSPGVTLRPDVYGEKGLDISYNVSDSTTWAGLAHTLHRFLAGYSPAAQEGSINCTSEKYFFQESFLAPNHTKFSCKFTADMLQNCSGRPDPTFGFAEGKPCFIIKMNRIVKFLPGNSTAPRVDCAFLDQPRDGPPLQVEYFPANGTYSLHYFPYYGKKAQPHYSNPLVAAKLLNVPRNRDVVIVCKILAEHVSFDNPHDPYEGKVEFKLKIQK
Description: Proton.potassium-adenosine triphosphatase (H^+.K^+ -ATPase) activation test
According to the method reported by Sachs et al. [J. Biol. Chem., 251, 7690 (1976)], a microsomal fraction obtained from homogenized fresh porcine gastric mucosa by density gradient ultracentrifugation was used as the proton.potassium-adenosine triphosphatase preparation, 10 μl of a solution of a test compound in dimethylsulfoxide were added to 0.75 ml of 70 mM tris-HCl buffer solution (magnesium chloride 5 mM, potassium chloride 20 mM and pH=6.85) containing from 30 to 80 μg/ml (in terms of protein concentration) of the enzyme preparation and the mixture was incubated for 45 minutes at 37° C. with shaking at 200 times per minute. The enzyme reaction was initiated by adding 0.25 ml of 8 mM disodium adenosine triphosphate solution. After 20 minutes of the reaction time, the reaction was stopped by adding 1 ml of a 10k trichloroacetic acid-active carbon (100 mg) solution. The reaction solution was centrifuged (4° C., 3000 rpm, 15 minutes) and the inorganic phosphate in the supernatant prepared from adenosine triphosphate by hydrolysis was measured by colorimetry, according to the method of Yoda and Hokin [Biochem. Biophys. Res. Commun., 40, 880 (1970)]. In a similar manner, the amount of inorganic phosphate was measured in a reaction solution in the absence of potassium chloride. From the difference between the phosphate amounts in the presence and absence of potassium chloride, the proton-potassium-adenosine triphosphatase activity was calculated. Based on the activity value in the control and the values in the test compound at the various concentrations tested, the inhibiting rates (%) and then the 50? inhibiting concentrations (IC50) to proton.potassium-adenosine triphosphatase activity were obtained.

Structure (SMILES) | minimum inhibitory concentration (MIC) against Helicobacter pylori [1] | inhibiting rate of gastric acid secretion (gastric acid secretion) | inhibiting concentrations (IC50) to proton.potassium-adenosine triphosphatase activity [2]
C/C=C/n1c(C)c(C)c2cnnc(OCc3ccc(F)cc3)c21 [Example 44, 7-(4-Fluorobenzyloxy)-2,3-dimethyl-1-(1-propenyl)-pyrrolo[2,3-d]pyridazine] | excellent antibacterial activity | excellent activity | excellent activity
CC=CCn1c(C)c(C)c2cnnc(OCc3ccc(Cl)cc3F)c21 [Example 48, 1-(2-Butenyl)-7-(4-chloro-2-fluorobenzyloxy)-2,3-dimethylpyrrolo[2,3-d]pyridazine] | excellent antibacterial activity | excellent activity | excellent activity
C=CCn1c(C)c(C)c2cnnc(OCc3ccc(F)cc3F)c21 [Example 9, 7-(2,4-Difluorobenzyloxy)-2,3-dimethyl-1-(2-propenyl)pyrrolo[2,3-d]pyridazine] | excellent antibacterial activity | excellent activity | excellent activity
